Measured values published in patent US20230110899A1, “NOVEL COMPOSITIONS FOR TREATMENT OF CORONAVIRUS DISEASE” (priority 2020, published 2023).
Several values for one entry are separate records, joined by “and”; a condition that tells them apart may be missing. Equal entries are not always repeated.

Experiments:
[1] = Plasma and lung fenretinide exposure, oral and inhaled (Example 3); format: in vivo, C57BL/6 mice; settings: nebulization of 0.65 mg/mL for 30 or 60 min; calculated, confirmed by analysis of lung tissue
[2] = tested on: adult CF patients experiencing pulmonary exacerbation; settings: cited from earlier work
Dengue = settings: cited from earlier work
ERK1/2 = settings: macrophages pretreated prior to S. suis infection, vs nontreated infected macrophages; cited from earlier work
allergen-sensitized mice = settings: mouse, in vivo; cited from earlier work
Dengue infection = settings: lethal mouse model; cited from earlier work
[3] = tested on: MERS-CoV clinical isolate; settings: viral spike (S) protein expression, infected Vero cells, IFA; read-out: 50% inhibitory concentration (IC50); cited from earlier work
Streptococcus suis = settings: acute S. suis infection; cited from earlier work
[4] = tested on: LPS induced ARDS mouse model; assay: LPS induced ARDS mouse model (tracheal instillation of 60 μg of LPS), oral and inhaled; format: in vivo, C57BL/6 mice; settings: for blood oxygen saturation (SpO2): 72 h; for blood reticulocyte count: vs LPS negative control
Zika virus = settings: in vitro, by targeting nonstructural protein 5; cited from earlier work
Spinal Cord Injury (SCI) = settings: oral administration; cited from earlier work
SARS-CoV-2 coronavirus = assay: SARS-CoV-2 plaque reduction assay in Vero E6 cells; format: cell-based; settings: for Mean PFU/well: n=3
[5] = biological target: T1, cytosolic phospholipases (cPLA2) (Homo sapiens, UniProt P47712); settings: cited from earlier work
T1 sequence (P47712 1-749): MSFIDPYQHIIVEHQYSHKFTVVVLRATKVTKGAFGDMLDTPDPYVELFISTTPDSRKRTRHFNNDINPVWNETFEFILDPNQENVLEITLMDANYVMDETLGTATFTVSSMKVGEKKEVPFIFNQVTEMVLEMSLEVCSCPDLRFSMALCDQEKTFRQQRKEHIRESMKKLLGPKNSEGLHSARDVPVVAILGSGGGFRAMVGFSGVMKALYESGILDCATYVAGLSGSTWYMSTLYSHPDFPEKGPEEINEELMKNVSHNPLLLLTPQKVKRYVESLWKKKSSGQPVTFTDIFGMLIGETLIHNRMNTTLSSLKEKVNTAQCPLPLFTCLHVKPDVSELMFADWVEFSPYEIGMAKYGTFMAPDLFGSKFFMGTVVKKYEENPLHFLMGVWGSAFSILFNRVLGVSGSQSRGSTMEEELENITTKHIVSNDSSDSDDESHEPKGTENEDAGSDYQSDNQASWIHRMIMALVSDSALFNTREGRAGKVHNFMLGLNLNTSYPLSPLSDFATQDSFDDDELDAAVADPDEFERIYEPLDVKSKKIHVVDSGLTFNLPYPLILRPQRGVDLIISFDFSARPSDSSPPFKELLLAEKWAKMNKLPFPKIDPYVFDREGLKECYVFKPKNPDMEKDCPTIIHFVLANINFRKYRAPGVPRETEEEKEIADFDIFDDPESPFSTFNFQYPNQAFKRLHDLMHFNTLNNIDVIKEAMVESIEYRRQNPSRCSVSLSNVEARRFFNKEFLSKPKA

Pseudomonas aeruginosa = settings: Cftr.KO mice; cited from earlier work
Vero E6 cells = settings: up to 40 μM concentrations
[6] = inhaled fenretinide 1.8 μg/kg, 72 hours
[7] = inhaled fenretinide 3.6 μg/kg, 72 hours

## CC1=C(/C=C/C(C)=C/C=C/C(C)=C/C(=O)Nc2ccc(O)cc2)C(C)(C)CCC1 [Fenretinide, 4-hydroxyphenyl retinamide]
[1]
  effective fenretinide dose delivered to the lungs (local lung concentration): 1 to 3 µM
[2]; at the onset of the PEx episode
  plasma levels of IL-6, IL-8, IL-10 and neutrophils count: appeared to improve
[2]; subgroup with pulmonary exacerbation (PEx)
  lipidomic markers: normalized the lipidomic markers in a dose-response manner
Dengue
  antiviral activity against Dengue fever disease: potent antiviral activity
ERK1/2
  ERK1/2 activation: significant reduction in ERK1/2 activation
allergen-sensitized mice
  infiltration of inflammatory cells to the airways: complete block of infiltration of inflammatory cells to the airways
Dengue infection
  protection against Dengue infection: can protect against Dengue infection
[3]
  IC50: 2.8 µM
Streptococcus suis
  survival: significantly improved their survival
[4]; inhaled fenretinide 1.8 μg/kg
  blood oxygen saturation (SpO2): partially, but significantly, alleviated the reduction of blood oxygen saturation
[4]; [6]
  lung protein concentration: reduced the lung protein concentration
  blood reticulocyte count: significantly increased reticulocyte counts
[4]; inhaled fenretinide 1.8 μg/kg, 72 hours, statistically significant vs negative control
  myeloperoxidase (MPO) activity in the BALF: reduced MPO activity
[4]; inhaled fenretinide 3.6 μg/kg
  blood oxygen saturation (SpO2): partially, but significantly, alleviated the reduction of blood oxygen saturation
[4]; [7]
  lung protein concentration: reduced the lung protein concentration
  blood reticulocyte count: significantly increased reticulocyte counts
Zika virus
  activity against Zika virus: potent activity
Spinal Cord Injury (SCI)
  locomotor recovery: improved locomotor recovery
SARS-CoV-2 coronavirus; Severe acute respiratory syndrome coronavirus 2, Vero C1008, linear regression analysis (FIG. 1), R2=0.92, read-out: IC50, 50% inhibition of virus survival
  IC50: 1.57 µM
SARS-CoV-2 coronavirus; fenretinide 0.625 μM
  % survival: 80.5%
  Plaque forming unit counts, Wells 1-3 (individual counts/well): 21 and 19 and 22
  Mean PFU/well: 20.7 PFU/well
SARS-CoV-2 coronavirus; fenretinide 1.25 μM
  % survival: 75.3%
  Plaque forming unit counts, Wells 1-3 (individual counts/well): 14 and 31 and 13
  Mean PFU/well: 19.3 PFU/well
SARS-CoV-2 coronavirus; fenretinide 2.5 μM
  % survival: 24.7%
  Plaque forming unit counts, Wells 1-3 (individual counts/well): 6 and 3 and 10
  Mean PFU/well: 6.3 PFU/well
SARS-CoV-2 coronavirus; fenretinide 5 μM
  % survival: 0.0%
  Plaque forming unit counts, Wells 1-3 (individual counts/well): 0
  Mean PFU/well: 0.0 PFU/well
[5]
  activity of cytosolic phospholipases (cPLA2): inhibits the activity of cytosolic phospholipases
Pseudomonas aeruginosa
  pulmonary load of Pseudomonas aeruginosa: significant decrease in the pulmonary load of Pseudomonas aeruginosa

## CCC(CC)COC(=O)[C@H](C)N[P@](=O)(OC[C@H]1O[C@@](C#N)(c2ccc3c(N)ncnn23)[C@H](O)[C@@H]1O)Oc1ccccc1 [Remdesivir]
Vero E6 cells
  cytopathic effect: No cytopathic effect
SARS-CoV-2 coronavirus; remdesivir 0.625 μM
  % virus survival: 90.9%
  Plaque forming unit counts, Wells 1-3 (individual counts/well): 25 (2×) and 20
  Mean PFU/well: 23.3 PFU/well
SARS-CoV-2 coronavirus; remdesivir 1.25 μM
  % virus survival: 42.9%
  Plaque forming unit counts, Wells 1-3 (individual counts/well): 10 and 11 and 12
  Mean PFU/well: 11.0 PFU/well
SARS-CoV-2 coronavirus; remdesivir 2.5 μM
  Plaque forming unit counts, Wells 1-3 (individual counts/well): 5 (2×) and 2
  Mean PFU/well: 4.0 PFU/well
SARS-CoV-2 coronavirus; remdesivir 5 μM
  % virus survival: 2.6%
  Plaque forming unit counts, Wells 1-3 (individual counts/well): 1 (2×) and 0
  Mean PFU/well: 0.7 PFU/well
SARS-CoV-2 coronavirus; remdesivir 10 μM
  % virus survival: 0%
  Plaque forming unit counts, Wells 1-3 (individual counts/well): 0
  Mean PFU/well: 0.0 PFU/well
SARS-CoV-2 coronavirus; remdesivir 20 μM
  % virus survival: 0.0%
  Plaque forming unit counts, Wells 1-3 (individual counts/well): 0
  Mean PFU/well: 0.0 PFU/well
SARS-CoV-2 coronavirus; remdesivir 40 μM
  % virus survival: 0.0%
  Plaque forming unit counts, Wells 1-3 (individual counts/well): 0
  Mean PFU/well: 0.0 PFU/well
